What is called IC50 is the concentration needed to halve the response being measured.

Holding throughout (type): cell-based
In experiment [1] the test system is HCC1419 human breast cancer cell line. The experiment is described as follows: Cell growth inhibition assay (methylene blue), HCC1419. The following applies: continuous presence of compound 4 or 7 days, at least three experiments, read-out: Average IC50. As to the method:
(§1) Cultured human breast cancer cells were placed in 96-well plates and grown in the continuous presence of test compounds for 4 or 7 days. To expose the cells to test compounds for 7 days, medium was replaced with fresh medium containing compounds after 4 days of exposure and cells were incubated for 3 additional days. Cell growth was assessed using modifications (Amin et al., Cancer Res., 47:6040-6045, 1987; incorporated herein by reference) of a methylene blue-based microculture assay (Finlay et al., Anal. Biochem., 139:272-277, 1984; incorporated herein by reference).
(§2) To investigate the possible expression of PgP by the cell lines used in this study, the antiproliferative effects of paclitaxel were determined in the presence and absence of verapamil, a known inhibitor of PgP.

Experiment [2] deals with BT-20 human breast cancer cell line. The experiment in a line: Cell growth inhibition assay (methylene blue), BT-20. The following applies: continuous presence of compound 4 or 7 days, at least three experiments, read-out: Average IC50.
Excerpt: (§3) The following human breast cancer cell lines were obtained from the ATCC. Cells were maintained according to ATCC-recommended culture conditions. AU565 (ATCC Catalog No. ATCC Catalog. No. CRL-2351), BT-20 (ATCC Catalog No. HTB-19), MCF7 (ATCC Catalog No. HTB22), MDA-MB-231 (ATCC Catalog No. HTB-26), MDA-MB-435 (ATCC Catalog No. HTB-129), MDA-MB-468 (ATCC Catalog No. HTB-132), HCC38 (ATCC Catalog No. CRL-2314), HCC70 (ATCC Catalog No. CRL-2315), HCC1143 (ATCC Catalog No. CRL-2321), HCC1428 (ATCC Catalog No. CRL-2327), HCC1500 (ATCC Catalog No. CRL-2329), HCC1806 (ATCC Catalog No. CRL-2335), HCC1954 (ATCC Catalog No. CRL-2338), HCC2218 (ATCC Catalog No. CRL-2343), UACC-812 (ATCC Catalog No. CRL-1897), UACC-893 (ATCC Catalog No. CRL-1902), ZR-75-1 (ATCC Catalog No. CRL-1500), ZR-75-30 (ATCC Catalog No. CRL-1504).
as §1, §2

Experiment [3] deals with MDA-MB-468 human breast cancer cell line. The experiment in a line: Cell growth inhibition assay (methylene blue), MDA-MB-468. The following applies: continuous presence of compound 4 or 7 days, at least three experiments, read-out: Average IC50.
Excerpt: as §3, §1, §2

The test system of experiment [4] is MDA-MB-435 human breast cancer cell line. The experiment in a line: Cell growth inhibition assay (methylene blue), MDA-MB-435. The following applies: continuous presence of compound 4 or 7 days, at least three experiments, read-out: Average IC50.
Excerpt: as §3, §1, §2

The subject of experiment [5] is ZR-75-1 human breast cancer cell line. The experiment is described as follows: Cell growth inhibition assay (methylene blue), ZR-75-1. The following applies: continuous presence of compound 4 or 7 days, at least three experiments, read-out: Average IC50.
Excerpt: as §3, §1, §2

Experiment [6] concerns MDA-MB-231 human breast cancer cell line. The experiment in a line: Cell growth inhibition assay (methylene blue), MDA-MB-231. The following applies: continuous presence of compound 4 or 7 days, at least three experiments, read-out: Average IC50.
Excerpt: as §3, §1, §2

The subject of experiment [7] is HCC1143 human breast cancer cell line. The experiment in a line: Cell growth inhibition assay (methylene blue), HCC1143. The following applies: continuous presence of compound 4 or 7 days, at least three experiments, read-out: Average IC50.
Excerpt: as §3, §1, §2

The subject of experiment [8] is ZR-75-30 human breast cancer cell line. The experiment is described as follows: Cell growth inhibition assay (methylene blue), ZR-75-30. The following applies: continuous presence of compound 4 or 7 days, at least three experiments, read-out: Average IC50.
Excerpt: as §3, §1, §2

Experiment [9] concerns HCC38 human breast cancer cell line. The experiment in a line: Cell growth inhibition assay (methylene blue), HCC38. The following applies: continuous presence of compound 4 or 7 days, at least three experiments, read-out: Average IC50.
Excerpt: as §3, §1, §2

The test system of experiment [10] is UACC-812 human breast cancer cell line. The experiment is described as follows: Cell growth inhibition assay (methylene blue), UACC-812. The following applies: continuous presence of compound 4 or 7 days, at least three experiments, read-out: Average IC50.
Excerpt: as §3, §1, §2

Experiment [11] concerns AU565 human breast cancer cell line. The experiment is described as follows: Cell growth inhibition assay (methylene blue), AU565. The following applies: continuous presence of compound 4 or 7 days, at least three experiments, read-out: Average IC50.
Excerpt: as §3, §1, §2

Experiment [12] deals with HCC1428 human breast cancer cell line. The experiment is described as follows: Cell growth inhibition assay (methylene blue), HCC1428. The following applies: continuous presence of compound 4 or 7 days, at least three experiments, read-out: Average IC50.
Excerpt: as §3, §1, §2

The test system of experiment [13] is panel of 19 human breast cancer cell lines. The experiment in a line: Cell growth inhibition assay, panel of 19 human breast cancer cell lines. The following applies: for fold-difference between IC50's in the most sensitive and the least sensitive cell line: panel of 19 human breast cancer cell lines.
Excerpt: as §3, §1
Antiproliferative effects of four tubulin-binding anticancer agents were evaluated by a methylene blue-based cell growth inhibin assay in a panel of 19 human breast cancer cell lines. The following agents were used in this study: halichondrin analog E7389, hemiasterlin analog E7974, vinblastine, and paclitaxel. Each IC50 determination was conducted in at least three separate experiments. A presence of multidrug resistance efflux pump (P-glycoprotein or PgP) could markedly affect sensitivity of cell lines to test agents and thus mask correlations between beta-tubulin expression and cell lines' sensitivity to test agents. Cell lines were therefore tested for evidence of PgP expression by monitoring effects of the PgP blocker verapamil (used at a 10 μM concentration) on paclitaxel sensitivity. No evidence for PgP expression was found in any of the cell lines tested (Table 4). […] Inter-drug correlations were seen between sensitivities to the three microtubule polymerization inhibitors E7974, E7389, and vinblastine, but not between the microtubule polymerization stabilizer paclitaxel.

In experiment [14] the test system is HCC2218 human breast cancer cell line. The experiment is described as follows: Cell growth inhibition assay (methylene blue), HCC2218. The following applies: HC-2218, continuous presence of compound 4 or 7 days, at least three experiments, read-out: Average IC50.
Excerpt: as §3, §1, §2

Experiment [15] concerns HCC1500 human breast cancer cell line. The experiment in a line: Cell growth inhibition assay (methylene blue), HCC1500. The following applies: continuous presence of compound 4 or 7 days, at least three experiments, read-out: Average IC50.
Excerpt: as §3, §1, §2

The subject of experiment [16] is MCF-7 human breast cancer cell line. The experiment is described as follows: Cell growth inhibition assay (methylene blue), MCF-7. The following applies: MCF7, continuous presence of compound 4 or 7 days, at least three experiments, read-out: Average IC50.
Excerpt: as §3, §1, §2

The test system of experiment [17] is UACC-893 human breast cancer cell line. The experiment in a line: Cell growth inhibition assay (methylene blue), UACC-893. The following applies: continuous presence of compound 4 or 7 days, at least three experiments, read-out: Average IC50.
Excerpt: as §3, §1, §2

The subject of experiment [18] is HCC70 human breast cancer cell line. The experiment in a line: Cell growth inhibition assay (methylene blue), HCC70. The following applies: continuous presence of compound 4 or 7 days, at least three experiments, read-out: Average IC50.
Excerpt: as §3, §1, §2

The test system of experiment [19] is HCC1806 human breast cancer cell line. The experiment in a line: Cell growth inhibition assay (methylene blue), HCC1806. The following applies: continuous presence of compound 4 or 7 days, at least three experiments, read-out: Average IC50.
Excerpt: as §3, §1, §2

The test system of experiment [20] is HCC1954 human breast cancer cell line. The experiment in a line: Cell growth inhibition assay (methylene blue), HCC1954. The following applies: continuous presence of compound 4 or 7 days, at least three experiments, read-out: Average IC50.
Excerpt: as §3, §1, §2

As for `CC[C@]1(O)C[C@@H]2CN(CCc3c([nH]c4ccccc34)[C@@](C(=O)OC)(c3cc4c(cc3OC)N(C)[C@H]3[C@@](O)(C(=O)OC)[C@H](OC(C)=O)[C@]5(CC)C=CCN6CC[C@]43[C@@H]65)C2)C1` [Vinblastine, vinblastine], the half-inhibitory concentration (IC50) was determined as 1.7 nM in [1]; 1.15 nM in experiment [2]; 0.82 nM in experiment [3]; 0.43 nM in experiment [4]; 1.72 nM in experiment [5]; 1.6 nM in [6]. Moreover, the IC50 in [7] amounted to 0.53 nM; in [8] it was 2.4 nM; in experiment [9], 0.73 nM; in [10] it was 1.11 nM; in experiment [11] it was 1.05 nM; in [12], 0.55 nM. For the same molecule, the IC50 came to 1.56 nM in experiment [14]; 0.56 nM in experiment [15]; 0.89 nM in experiment [16]; 1.32 nM in [17]; 0.8 nM in experiment [18]; 0.86 nM in experiment [19]. The half-maximal inhibitory concentration (IC50) in [20] stood at 0.7 nM. Moreover, the “fold-difference between IC50's in the most sensitive and the least sensitive cell line” value (“fold-difference between IC50's” for short) in experiment [13] is listed as 5.6 fold.
On to `C/C(=C\[C@H](C(C)C)N(C)C(=O)[C@@H](NC(=O)[C@H]1CCCCN1C(C)C)C(C)(C)C)C(=O)O` [E7974], for which the “fold-difference between IC50's” value in experiment [13] amounted to 6.8 fold.
On to `C=C1C[C@@H]2CC[C@@]34C[C@H]5O[C@H]6[C@@H](O3)[C@H]3O[C@H](CC[C@@H]3O[C@H]6[C@H]5O4)CC(=O)C[C@@H]3[C@@H](OC)[C@@H](C[C@H](O)CN)O[C@H]3C[C@H]3O[C@@H](CC[C@@H]1O2)C[C@@H](C)C3=C` [E7389], for which the IC50 in experiment [1] is 1.59 nM; in [2], 0.82 nM; in [3], 0.45 nM; in [4] it was 0.29 nM; in experiment [5], 1.19 nM; in [6], 1.75 nM. Besides, the IC50 amounted to 0.43 nM in experiment [7]; 1.8 nM in experiment [8]; 0.4 nM in experiment [9]; 1.17 nM in experiment [10]; 0.65 nM in experiment [11]; 0.53 nM in [12]. The IC50 in [13] (range over 19 human breast cancer cell lines) was 0.29 to 1.8 nM; in experiment [14], 1.14 nM; in [15], 0.56 nM; in experiment [16], 1.45 nM; in [17], 0.31 nM; in experiment [18] it was 0.63 nM. For the same molecule, the IC50 in [19] was 0.74 nM; in experiment [20], 0.37 nM. Besides, the “fold-difference between IC50's” value in experiment [13] came out at 6.2 fold.
